Laboratory results taken from paper PMC6471128, “Preparation and Identification of ACE Inhibitory Peptides from the Marine Macroalga Ulva intestinalis” (Marine Drugs, 2019).
Like-named read-outs stand apart in the source and are kept apart here. Blank lines part the entries; values can stand above or below the molecule they belong to. Ends that are not written are not given here.

Experiments:
ACE = settings: cited from earlier work
Excerpt: ACE inhibitors (ACEIs) inhibit ACE activity and reduce blood pressure by inhibiting the synthesis of angiotensin II or promoting the release of bradykinin. Although ACEIs, such as enalapril, captopril, and lisinopril, are widely used in hypertension treatments, synthetic ACEIs have a series of negative effects, including hypotension, cough, increased potassium levels and, angioedema. Consequently, the development of safe and effective antihypertensive drugs is important, and due to antihypertensive effects and safety, there has been an increasing interest in food-derived ACE inhibito ...

ACE (from rabbit lung) [1] = biological target: T1, ACE (from rabbit lung) (Oryctolagus cuniculus, UniProt P12822); experiment: ACE inhibition and IC50 assay (FAPGG substrate); format: biochemical
T1 construct: ACE (from rabbit lung); purchased Sigma Chemical Co. (St. Louis, MO, USA); host or cells: rabbit lung tissue
T1 sequence (P12822 34-1310): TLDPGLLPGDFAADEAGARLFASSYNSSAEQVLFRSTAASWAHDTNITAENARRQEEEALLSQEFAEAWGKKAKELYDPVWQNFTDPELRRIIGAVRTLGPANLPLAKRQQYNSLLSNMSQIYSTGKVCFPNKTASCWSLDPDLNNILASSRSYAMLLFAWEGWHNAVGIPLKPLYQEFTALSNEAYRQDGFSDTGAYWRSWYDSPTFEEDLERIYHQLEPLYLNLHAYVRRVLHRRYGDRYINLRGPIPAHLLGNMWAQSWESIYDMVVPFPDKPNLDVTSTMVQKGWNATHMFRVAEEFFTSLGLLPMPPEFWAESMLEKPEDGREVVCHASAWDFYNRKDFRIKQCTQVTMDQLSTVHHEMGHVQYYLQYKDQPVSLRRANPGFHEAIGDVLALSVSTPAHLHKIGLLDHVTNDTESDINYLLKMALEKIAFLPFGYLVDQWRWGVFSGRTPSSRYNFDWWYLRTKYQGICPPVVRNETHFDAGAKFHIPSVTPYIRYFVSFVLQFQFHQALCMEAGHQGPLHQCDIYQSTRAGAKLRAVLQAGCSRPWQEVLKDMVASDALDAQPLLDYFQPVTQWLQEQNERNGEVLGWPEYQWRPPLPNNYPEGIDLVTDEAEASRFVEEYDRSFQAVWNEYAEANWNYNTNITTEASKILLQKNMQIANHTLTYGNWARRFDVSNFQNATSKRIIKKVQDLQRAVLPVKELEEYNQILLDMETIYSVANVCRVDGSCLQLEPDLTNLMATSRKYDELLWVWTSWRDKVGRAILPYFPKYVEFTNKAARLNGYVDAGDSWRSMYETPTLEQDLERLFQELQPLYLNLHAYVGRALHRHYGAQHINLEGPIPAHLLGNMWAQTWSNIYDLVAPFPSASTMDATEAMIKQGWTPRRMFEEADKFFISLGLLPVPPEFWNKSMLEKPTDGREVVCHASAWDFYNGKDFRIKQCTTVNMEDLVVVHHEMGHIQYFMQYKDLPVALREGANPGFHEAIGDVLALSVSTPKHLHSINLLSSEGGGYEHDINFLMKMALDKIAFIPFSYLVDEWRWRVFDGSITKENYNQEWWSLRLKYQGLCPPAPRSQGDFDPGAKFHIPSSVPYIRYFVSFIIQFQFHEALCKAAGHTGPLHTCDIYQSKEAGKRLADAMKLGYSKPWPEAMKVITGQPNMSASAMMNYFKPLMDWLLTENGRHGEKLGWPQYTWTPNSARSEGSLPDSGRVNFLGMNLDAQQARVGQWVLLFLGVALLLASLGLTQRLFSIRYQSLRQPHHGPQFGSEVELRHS
Experimental: (§1) ACE inhibition was examined according to Shalaby et al. and Henda et al., with slight modifications. FAPGG and ACE were dissolved in 50 mM Tris-HCl (pH 7.5) containing 300 mM NaCl. A sample solution (40 μL) was mixed with 100 μL of 0.88 mM FAPGG solution, and the mixture was incubated at 37 °C for 5 min. To start the reaction, 60 μL of ACE solution (0.20 U/mL) was added; absorbance was measured at 340 nm and recorded every 1 min for 30 min using a SpectraMax 190 absorbance microplate reader (Molecular Devices, Sunnyvale, USA). The slope averaged over a linear interval of 10–30 min was taken as a measure of the ACE inhibitory activity. The degree of ACE inhibition was calculated according to the following equation: ACE inhibition rate (%) = [1 − (slope inhibitior/slope control)] × 100(2)
The activity of each sample was tested in triplicate. The IC50 value, the concentration of peptide required to reduce ACE activity by 50%, was determined by regression analysis of ACE inhibition (%) vs. peptide concentration.

ACE (from rabbit lung) [2] = biological target: T1, ACE (from rabbit lung); experiment: In vitro simulated gastrointestinal digestion (pepsin, then trypsin) followed by ACE inhibitory activity assay; format: in vitro ADME; settings: for stability for pepsin and trypsin digestion: in vitro digestion, read-out ACE inhibitory activity
Experimental: as §1
In vitro digestion was performed according to the method of Cing et.al. The purified peptide sample was mixed with 0.1 M phosphate buffer (pH 2.0) and pepsin (E/S 4%, w/w); the reaction was allowed to proceed for 2 h at 37 °C and stopped by heating at 100 °C for 10 min. Subsequently, the remaining suspension was adjusted to pH 8.0 with 5 M NaOH solution and further digested with trypsin (E/S 4%, w/w); the solution was incubated at 37 °C for 2 h and then heated at 100 °C for 10 min. The protein hydrolysate was centrifuged at 8000 rpm/min for 15 min, and the supernatant was assayed for ACE inhibitory activity.

[3] = biological target: T2, Angiotensin I-converting enzyme (from rabbit lung) (rabbit) (UniProt P12822)
T2 sequence: T1 sequence (P12822 34-1310)

[4] = biological target: T2, Angiotensin I-converting enzyme (from rabbit lung) (rabbit); remark: listed apart in the source
[5] = peptides from Undaria pinnatifida
[6] = peptides from Porphyra yezoensis
[7] = peptides purified from Ulva rigida protein hydrolysate
[8] = peptides identified in fraction C2-8, FAPGG 0.88 mM, ACE 0.20 U/mL, 50 mM Tris-HCl pH 7.5, 300 mM NaCl, 37 °C, absorbance 340 nm, tested in triplicate
[9] = purified ACE inhibitors, same values as in μM given in mg/mL
[10] = pH 2, synthetic peptide at 0.2 mg/mL, after pepsin hydrolysis for 2 h (0.1 M phosphate buffer pH 2.0, E/S 4% w/w, 37 °C)
[11] = synthetic peptide at 0.2 mg/mL, Control (no digestion)
[12] = synthetic peptide at 0.2 mg/mL, pepsin hydrolysis for 2 h (pH 2.0, 37 °C) followed by trypsin hydrolysis for 2 h (pH 8.0, 37 °C), E/S 4% w/w each

Molecule: Ala-Ile-Tyr-Lys
IC50 (ACE; [5]): 213 µM

Molecule: Ala-Lys-Tyr-Ser-Tyr
IC50 (ACE; [6]): 1.52 µM

Molecule: Ala-Phe-Leu
IC50 (ACE; [7]): 65.8 µM

IC50 (ACE (from rabbit lung) [1]; [8]): 219 µM
IC50 (ACE (from rabbit lung) [1]; [9]): 219 µM
stability for pepsin and trypsin digestion (ACE (from rabbit lung) [2]): good stability
inhibition at 200 µg/mL (ACE (from rabbit lung) [2]; [10]): 52.98 ± 0.19%
inhibition at 200 µg/mL (ACE (from rabbit lung) [2]; [11]): 50.07 ± 0.07%
inhibition at 200 µg/mL (ACE (from rabbit lung) [2]; [12]): 51.32 ± 0.02%
Molecule: FGMPLDR [FGMPLDR, Phe-Gly-Met-Pro-Leu-Asp-Arg]

Molecule: Gln-Val-Glu-Tyr
IC50 (ACE; peptide from hydrolyzed Gracilariopsis lemaneiformis): 474 µM

Molecule: Ile-Pro
IC50 (ACE; [7]): 87.6 µM

Molecule: Ile-Tyr
IC50 (ACE; [6]): 2.69 µM

Molecule: Leu-Arg-Tyr
IC50 (ACE; [6]): 5.06 µM

Molecule: Lys-Phe-Tyr-Gly
IC50 (ACE; [5]): 90.5 µM

IC50 (ACE (from rabbit lung) [1]; [8]): 237 µM
IC50 (ACE (from rabbit lung) [1]; [9]): 236 µM
stability for pepsin and trypsin digestion (ACE (from rabbit lung) [2]): good stability
inhibition at 200 µg/mL (ACE (from rabbit lung) [2]; [10]): 56.84 ± 0.04%
inhibition at 200 µg/mL (ACE (from rabbit lung) [2]; [11]): 59.92 ± 0.04%
inhibition at 200 µg/mL (ACE (from rabbit lung) [2]; [12]): 58.63 ± 0.13%
Molecule: MELVLR [MELVLR, Met-Glu-Leu-Val-Leu-Arg]

Molecule: Met-Lys-Tyr
IC50 (ACE; [6]): 7.26 µM

Molecule: Tyr-Asn-Lys-Leu
IC50 (ACE; [5]): 21 µM

Molecule: Tyr-Lys-Tyr-Tyr
IC50 (ACE; [5]): 64.2 µM

IC50 of ACE inhibition (hydrolysis of FAPGG by ACE, absorbance at 340 nm, 37 °C, 50 mM Tris-HCl pH 7.5, 300 mM NaCl) [3]: 219 μM
ACE Inhibitory Activity (%) of the synthetic peptide at 0.2 mg/mL, after pepsin hydrolysis for 2 h [4]: 53%
ACE Inhibitory Activity (%) of the synthetic peptide at 0.2 mg/mL, after pepsin hydrolysis for 2 h followed by trypsin hydrolysis for 2 h [4]: 51.3%
ACE Inhibitory Activity (%) of the synthetic peptide at 0.2 mg/mL, control (not digested) [4]: 50.1%
Molecule: FGMPLDR [Phe-Gly-Met-Pro-Leu-Asp-Arg]

IC50 of ACE inhibition (hydrolysis of FAPGG by ACE, absorbance at 340 nm, 37 °C, 50 mM Tris-HCl pH 7.5, 300 mM NaCl) [3]: 237 μM
ACE Inhibitory Activity (%) of the synthetic peptide at 0.2 mg/mL, after pepsin hydrolysis for 2 h [4]: 56.8%
ACE Inhibitory Activity (%) of the synthetic peptide at 0.2 mg/mL, after pepsin hydrolysis for 2 h followed by trypsin hydrolysis for 2 h [4]: 58.6%
ACE Inhibitory Activity (%) of the synthetic peptide at 0.2 mg/mL, control (not digested) [4]: 59.9%
Molecule: MELVLR [Met-Glu-Leu-Val-Leu-Arg]
